Where a name gives a salt, the structure may show the parent alone.

As usually defined, the IC50 is the concentration needed to halve the response being measured.

The target of this assay is M3 receptor (Homo sapiens (Human), UniProt P20309). In words: FLIPR calcium flux assay, antagonist mode, CHO-K1 cells stably expressing M3 receptor. In kind it is cell-based. Conditions: inhibition of acetylcholine-induced calcium flux (8 nM acetylcholine, EC80). How it is done: FLIPR assay was used to evaluate the potency of compounds. CHO-K1 cells stably expressing M3 receptor were cultured at 37° C. in the culture media (90% Ham's F-12 Nutrient Mixture, Gibco; 10% fetal bovine serum, Biosera; 200 μg/mL Hygromycin, and Penicillin (100 U/mL)/Streptomycin (100 μg/mL), Invitrogen) till 100% confluency in cell culture incubator (ThermoFisher, 5% CO2). Cells were harvested by using 0.25% Trypsin/EDTA, spun down at 300×g for 5 min, and resuspended in the culture media at cell density of 5×10^5 cells/mL. Twenty microliter of cell suspension (10,000 cells/well) was transferred to 384-well plate and cultured for 24 hr before assay. DMSO was used as blank control and scopolamine (MedChemExpress) as a positive control for antagonist. Compounds were prepared in DMSO (stock concentration: 1 mM) and 3×serially diluted (10 concentrations) in 384-LDV plate (Labcyte). Ninety nL of serially diluted compounds were transferred from 384-LDV plate into compound plate (PerkinElmer) by Echo 550 (Labcyte), and 30 uL assay buffer (1×HBSS with 20 mM HEPES, pH 7.4, Sigma) were added to each well. For FLIPR assay, culture media was removed and 20 uL of 1× loading dye (Assay buffer with 2 μM Fluo-8 AM, AAT Bioquest; 1 mM Probenecid and 0.0025% pluronic F-127, Sigma) was added to each well. The plate was incubated at 37° C. for 1 hr (avoid light exposure). For FLIPR assay, Excitation wavelength was set at 470/495 nm and Emission wavelength was set at 515/575 nm (Molecular Devices). Assay was performed in both agonist and antagonist modes. For agonist mode, 10 μL of diluted compounds were transferred to cell culture well and incubated at room temperature for 10 min. For antagonist mode, 10 μL diluted compounds with 8 nM acetylcholine (EC80, MedChemExpress) was added to each well, incubated at room temperature for 10 min. RFU value was calculated by subtracting minimum from maximum of FLIPR signal. Inhibitory effect of compounds on acetylcholine-induced calcium flux was calculated by % Effect=(RFUsample−RFUDMSO)/(RFUScopolamine−RFUDMSO)×100. Dose response curve fitting and IC50 value of each compound was calculated by using XLFit. The following table lists the IC50 where * means IC50>1000 nM; ** 10-100 nM; ***<10 nM.
Sequence of M3 receptor (P20309 whole entry): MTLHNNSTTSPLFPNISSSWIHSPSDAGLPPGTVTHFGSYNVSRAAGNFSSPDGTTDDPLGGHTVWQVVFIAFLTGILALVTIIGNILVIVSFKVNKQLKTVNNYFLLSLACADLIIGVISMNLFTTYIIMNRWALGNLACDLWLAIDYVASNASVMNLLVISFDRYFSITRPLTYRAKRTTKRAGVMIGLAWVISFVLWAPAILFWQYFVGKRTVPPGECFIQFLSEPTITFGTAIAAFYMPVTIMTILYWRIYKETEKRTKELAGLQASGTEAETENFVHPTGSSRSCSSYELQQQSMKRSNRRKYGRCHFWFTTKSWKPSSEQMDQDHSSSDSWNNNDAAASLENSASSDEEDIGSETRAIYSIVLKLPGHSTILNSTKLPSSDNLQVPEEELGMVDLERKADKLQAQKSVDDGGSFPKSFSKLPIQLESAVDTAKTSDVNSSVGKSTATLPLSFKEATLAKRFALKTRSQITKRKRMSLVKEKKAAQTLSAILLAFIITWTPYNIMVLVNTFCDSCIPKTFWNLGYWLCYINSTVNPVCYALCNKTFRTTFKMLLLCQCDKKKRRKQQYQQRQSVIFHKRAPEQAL
On the technique in general: Calcium flux is commonly read through the fluorescence of an indicator in the cells.
For `C[N+]1(C)CC[C@H](OC(=O)C(O)c2ccccc2C2=CCCC2)C1` (single isomer, unassigned) [Example 5, trifluoroacetate], the half-maximal inhibitory concentration (IC50) lay within 10 to 100 nM. The result for `C[N+]1(C)CCC(OC(=O)C(O)c2ccccc2-c2ccccc2)C1` (stereo not drawn) [Example 11, 3-(2-([1,1′-biphenyl]-2-yl)-2-hydroxyacetoxy)-1,1-dimethylpyrrolidin-1-ium chloride] reads 10 to 100 nM. The value for `C[N+]1(C)CC[C@@H](OC(=O)C(O)c2ccccc2C2=CCCC2)C1` (single isomer, unassigned) [Example 2, trifluoroacetate] was less than 10 nM.

In the case of `C[N+]1(C)CC[C@@H](OC(=O)C(O)c2ccccc2-c2ncco2)C1` (stereo partly drawn) [Example 1, (3R)-3-(2-hydroxy-2-(2-(oxazol-2-yl)phenyl)acetoxy)-1,1-dimethylpyrrolidin-1-ium trifluoroacetate], the IC50 is 10 to 100 nM. For `C[N+]1(C)CCC[C@H]1COC(=O)C(O)c1ccccc1C1=CCCC1` (single isomer, unassigned) [Example 9, trifluoroacetate], the IC50 is less than 10 nM.

Consider `C[N+]1(C)CC[C@H](OC(=O)C(O)c2ccccc2C2=CCCC2)C1` (single isomer, unassigned) [Example 4, trifluoroacetate], for which the IC50 was in the range of 10 to 100 nM.

As for `C[N+]1(C)CCC[C@H]1COC(=O)C(O)c1ccccc1C1=CCCC1` (single isomer, unassigned) [Example 8, trifluoroacetate], the IC50 fell in the range of 10 to 100 nM. The result for `C[N+]1(C)CCC[C@@H]1COC(=O)C(O)c1ccccc1C1=CCCC1` (single isomer, unassigned) [Example 6, trifluoroacetate] reads less than 10 nM; that for `C[N+]1(C)CC[C@@H](OC(=O)C(O)c2ccccc2C2=CCCC2)C1` (single isomer, unassigned) [Example 3, trifluoroacetate], 10 to 100 nM; that for `CC(C)c1ccccc1C(O)C(=O)OC1CC[N+](C)(C)C1` (stereo not drawn) [Example 12, 3-(2-hydroxy-2-(2-isopropylphenyl)acetoxy)-1,1-dimethylpyrrolidin-1-ium chloride], greater than 1000 nM. The result for `C[N+]1(C)CCC[C@@H]1COC(=O)C(O)c1ccccc1C1=CCCC1` (stereo partly drawn) [Example 7, (R)-2-((2-(2-(cyclopent-1-en-1-yl)phenyl)-2-hydroxyacetoxy)methyl)-1,1-dimethylpyrrolidin-1-ium trifluoroacetate] reads 10 to 100 nM; that for `C[N+]1(C)CCC(OC(=O)C(O)c2ccccc2C2CCCC2)C1` (stereo not drawn) [Example 10, 3-[2-(2-Cyclopentyl-phenyl)-2-hydroxy-acetoxy]-1,1-dimethyl-pyrrolidinium chloride], 10 to 100 nM.

The values above are taken from patent US20240002372A1, “ANTICHOLINERGIC AGENTS” (REZUBIO PHARMACEUTICALS CO., LTD, priority 2020, published 2024).
